# Test results as given in publication PMC8073005, “Antifungal Activity and DNA Topoisomerase Inhibition of Hydrolysable Tannins from Punica granatum L” (International Journal of Molecular Sciences, 2021).
# “And” between values parts separate entries of the source, which are not always exact repeats. Equal entries are not always repeated. Where two headings read alike, the source gives them in different places.
# What was measured:
# [1] = test system: Cryptococcus var. grubii H99 serotype A; test: MIC, broth microdilution (human pathogens); format: cell-based; settings: Cryptococcus var. grubii H99 serotype A; SDB, 30 °C, 48 h; read-out: Minimum inhibitory concentration (MIC)
# [2] = test system: C. albicans 1 (clinically isolated strain); test: Time-kill curves; format: cell-based, Candida albicans; settings: compound at its MIC value, 0–96 h
# [3] = test system: Aspergillus brasiliensis ATCC 16404; test: MIC, broth microdilution (human pathogens); format: cell-based; settings: ATCC16404; Aspergillus brasiliensis ATCC 16404; SDB, 30 °C, 48 h; read-out: Minimum inhibitory concentration (MIC)
# Candida albicans H = test: MIC, broth microdilution (human pathogens); format: cell-based; settings: Candida albicans H; SDB, 30 °C, 48 h; read-out: Minimum inhibitory concentration (MIC)
# [4] = target: T1, topoisomerase I from Candida albicans (Candida albicans, UniProt Q00313); test: Topoisomerase I supercoiled DNA relaxation inhibition; format: biochemical; settings: mean ± SD; relaxation of supercoiled pBR322; concentration range 0.001–200 μM; read-out: IC50 Value Topoisomerase I
# T1 sequence (Q00313 1-778): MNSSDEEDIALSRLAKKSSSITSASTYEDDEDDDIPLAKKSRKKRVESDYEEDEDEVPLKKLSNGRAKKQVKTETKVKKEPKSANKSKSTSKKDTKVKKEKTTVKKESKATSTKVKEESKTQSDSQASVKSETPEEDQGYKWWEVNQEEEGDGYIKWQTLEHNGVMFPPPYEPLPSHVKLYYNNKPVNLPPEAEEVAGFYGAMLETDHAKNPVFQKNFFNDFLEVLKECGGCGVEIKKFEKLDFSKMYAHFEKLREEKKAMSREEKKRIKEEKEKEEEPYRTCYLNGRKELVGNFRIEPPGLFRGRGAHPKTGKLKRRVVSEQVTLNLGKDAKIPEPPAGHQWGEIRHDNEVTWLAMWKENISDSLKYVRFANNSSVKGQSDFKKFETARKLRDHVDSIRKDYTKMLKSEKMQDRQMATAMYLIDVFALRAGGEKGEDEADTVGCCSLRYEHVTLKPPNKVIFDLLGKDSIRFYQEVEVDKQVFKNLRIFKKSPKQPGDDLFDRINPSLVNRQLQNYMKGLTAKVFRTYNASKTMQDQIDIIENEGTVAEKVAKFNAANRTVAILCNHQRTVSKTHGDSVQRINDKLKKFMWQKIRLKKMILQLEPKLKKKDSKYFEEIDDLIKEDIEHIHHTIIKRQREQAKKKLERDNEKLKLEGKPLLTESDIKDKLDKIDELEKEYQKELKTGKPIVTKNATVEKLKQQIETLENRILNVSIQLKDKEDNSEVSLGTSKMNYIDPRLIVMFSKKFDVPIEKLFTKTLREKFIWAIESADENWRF
# Candida zeylanoides 33 = test: MIC, broth microdilution (human pathogens); format: cell-based; settings: Dujonia zeylanoides; Candida zeylanoides 33; SDB, 30 °C, 48 h; read-out: Minimum inhibitory concentration (MIC)
# [5] = test system: other genera tested (other fungi strains); test: Agar Disk Diffusion Assay, other genera; format: cell-based
# Protocol: The antifungal activity of pomegranate compounds was evaluated against 19 clinically isolated fungal strains, including nine belonging to Candida albicans species, two belonging to Aspergillus genus, one belonging to Cryptococcus genus, and one Saccharomyces cerevisiae. The C. albicans strains were isolated on CHROMID agar, Aspergillus and Cryptococcus genus were isolated on SDA-CAF and one Saccharomyces cerevisiae on SDA. All the isolates were confirmed by matrix-assisted laser desorption ionization (MALDI) time-of-flight mass spectrometry (TOF/MS). Strains from the American Type Culture Collection (ATCC) were included. All strains were maintained in SDB with 20% (w/v) glycerol at −80 °C until use and sub-cultured in SDA before each test.
# The preliminary determination of the antifungal activity of the target compounds (punicalagin, punicalin, ellagic acid, and gallic acid) from pomegranate was carried out by means of the agar disk diffusion assay, according to the standard procedure of the Clinical and Laboratory Standards Institute, with slight modifications. Plates containing SDA were uniformly spread with 100 μL of 10^3 conidia/mL of each strain suspension. […] Disks containing fluconazole (25 μg), amphotericin B (25 μg) and DMSO (20 μL) were used as the positive and the negative control, respectively. The antifungal activity of pomegranate compounds was evaluated by measuring the diameter of the clear inhibition zone formed right around the disks after 48 h incubation at 30 ± 1 °C. The experiment was carried out in triplicate.
# Candida strains = test: Agar Disk Diffusion Assay, Candida strains; format: cell-based
# [6] = test system: Alternaria alternata AL19; test: MIC, micro-spectrophotometric growth assay (phytopathogens); format: cell-based; settings: for MIC: Alternaria alternata AL19, PDB, 24 °C, dark, imazalil at label dose, read-out: Minimum inhibitory concentration (MIC)
# Candida parapsilosis 7 = test: MIC, broth microdilution (human pathogens); format: cell-based; settings: Lodderomyces parapsilosis; Candida parapsilosis 7; SDB, 30 °C, 48 h; read-out: Minimum inhibitory concentration (MIC)
# Candida albicans SC 5314 = test: MIC, broth microdilution (human pathogens); format: cell-based; settings: SC5314; Candida albicans SC 5314; SDB, 30 °C, 48 h; read-out: Minimum inhibitory concentration (MIC)
# Botrytis cinerea B2 = test: MIC, micro-spectrophotometric growth assay (phytopathogens); format: cell-based; settings: for MIC: Botrytis cinerea B2, PDB, 24 °C, dark, imazalil at label dose, read-out: Minimum inhibitory concentration (MIC)
# Coniella granati M0_C2 = test: as above; format: cell-based; settings: for growth reduction: C. granati, 48 h of incubation; for MIC: Coniella granati M0_C2, PDB, 24 °C, dark, imazalil at label dose, read-out: Minimum inhibitory concentration (MIC)
# Aspergillus candidus 25 = test: MIC, broth microdilution (human pathogens); format: cell-based; settings: Aspergillus candidus 25; SDB, 30 °C, 48 h; read-out: Minimum inhibitory concentration (MIC)
# [7] = test system: Cryptococcus neoformans B 3501; test: MIC, broth microdilution (human pathogens); format: cell-based; settings: B3501; Cryptococcus neoformans B 3501; SDB, 30 °C, 48 h; read-out: Minimum inhibitory concentration (MIC)
# [8] = test system: Colletotrichum acutatum s.s. M146-2; test: MIC, micro-spectrophotometric growth assay (phytopathogens); format: cell-based, Colletotrichum acutatum sensu stricto; settings: for MIC: Colletotrichum acutatum s.s. M146-2, PDB, 24 °C, dark, imazalil at label dose, read-out: Minimum inhibitory concentration (MIC)
# Candida albicans 1 = test: MIC, broth microdilution (human pathogens); format: cell-based; settings: Candida albicans 1; SDB, 30 °C, 48 h; read-out: Minimum inhibitory concentration (MIC)
# Candida albicans 40 = test: MIC, broth microdilution (human pathogens); format: cell-based; settings: Candida albicans 40; SDB, 30 °C, 48 h; read-out: Minimum inhibitory concentration (MIC)
Compound,MIC [1],time-kill curve (susceptibility time-course) [2],MIC [3],MIC (Candida albicans H),IC50 [4],MIC (Candida zeylanoides 33),MIC [6],MIC (Candida parapsilosis 7),MIC (Candida albicans SC 5314),MIC (Botrytis cinerea B2),growth reduction (Coniella granati M0_C2),MIC (Coniella granati M0_C2),MIC (Aspergillus candidus 25),MIC [7],MIC [8],MIC ([8]; S.S.M1462),MIC (Candida albicans 1),MIC (Candida albicans 40),further results
"O=c1oc2c(O)c(O)cc3c(=O)oc4c(O)c(O)cc1c4c23 [Ellagic Acid, ellagic acid]",662 µM,lowest activity compared with the other compounds,662 µM,331 µM,56.6 ± 1.2 µM,331 µM,165.4 µM and 165 µM,331 µM,2.5 µM,165.4 µM and 165 µM,up to 60%,165.4 µM and 165 µM,662 µM,331 µM,165.4 µM,165 µM,5 µM,331 µM,"share of other strains with growth inhibition from 21 to 30 mm ([5]; 62.5 µg): 100%; share of Candida strains with inhibition zone from 21 to 30 mm (Candida strains; 25 μg): 64%; share of Candida tested strains with growth inhibition zone from 11 to 20 mm (Candida strains; 25 μg): 36%; share of Candida strains with growth inhibition from 21 to 30 mm (Candida strains; 62.5 µg): 73%; antifungal activity (growth curve) ([6]; A. alternata, Figure S3): no or little antifungal activity; antifungal activity (growth curve) (Botrytis cinerea B2; B. cinerea, Figure S3): no or little antifungal activity"
"O=C1OC[C@H]2OC(O)[C@H](O)[C@@H](O)[C@@H]2OC(=O)c2cc(O)c(O)c(O)c2-c2c(O)c(O)c3oc(=O)c4c(c(O)c(O)c5oc(=O)c2c3c54)-c2c1cc(O)c(O)c2O (mixture of isomers) [Punicalin, punicalin]",127 µM,"after 60 h of incubation, punicalin becomes less effective than punicalagin",1.9 µM,1.9 µM,14.7 ± 0.9 µM,127 µM,255.6 µM and 256 µM,3.8 µM,127 µM,255.6 µM and 256 µM,up to 92%,255.6 µM and 256 µM,127 µM,1.9 µM,255.6 µM,256 µM,3.8 µM,127 µM,"share of other fungi strains with inhibition zone from 11 to 20 mm ([5]; 100 µg): 63%; share of Candida strains with inhibition zone from 11 to 20 mm (Candida strains; 100 µg): 91%; growth reduction ([8]; C. acutatum s.s., up to 24 h of incubation): 83%"
